Here are results for 1 compound from patent EP0430045B1, “Ascorbic acid tocopheryl phosphate diesters for inhibition of Maillard's reaction” (Senju Pharmaceutical Co., Ltd., priority 1989, dated 1991).

This assay concerns the target T1, bovine serum albumine (Bos taurus, UniProt P02769).
T1 construct: purchased Sigma A-8022
Briefly: Inhibition of furosine formation (non-enzymatic glycosylation of BSA by glucose, Maillard's reaction), furosine determined by HPLC. As to conditions: inhibition rate of furosine formation; 5 mM test compound, 20 mg/ml BSA, 50 mM glucose, 50 mM phosphate buffer pH 7.3, 4 weeks at 37 °C. The assay is classed as biochemical. How it is done:
Sample solutions as shown below were aseptically prepared from bovine serum albumine (No. A-8022, Sigma)(hereinafter referred to as BSA), 50 mM phosphate buffer solution (PH 7.3) and the test compound and aminoguanidine.
Normal sample; 20 mg/ml BSA in buffer solution Control sample: 20 mg/ml BSA and 50 mM glucose in buffer solution Test sample; 20 mg/ml BSA, 50 mM glucose and 5 mM test compound in buffer solution The sample solutions were kept for 4 weeks at 37 °C, and the amount of furosine which was formed by non-enzymatic glycosylation was determined by HPLC according to the method of Schleicher et al. [J. Clin. Biochem., 19:81-87 (1981).] Thus, the sample solutions after reaction were dialyzed, and aliquots of 1 ml were lyophylized and then hydrolyzed by the addition of 1 ml of 6 N hydrochloric acid followed by heating at 100 °C for 20 hours. After removal of hydrochloric acid by evaporation, 1 ml of water was added to each sample, and the samples were subjected to filtration using a filter with the pore size of 0.45 »m. The filtrate was used as the sample for HPLC. […] The absorbance peak whose ratio of peak area at […] was 3.9/1 was regarded as the peak corresponding to furosine.
Upon the area of the peak of furosine of each sample, the inhibition rate of furosine formation by the test compound was calculated as follows. […]

T1 sequence (P02769 25-607): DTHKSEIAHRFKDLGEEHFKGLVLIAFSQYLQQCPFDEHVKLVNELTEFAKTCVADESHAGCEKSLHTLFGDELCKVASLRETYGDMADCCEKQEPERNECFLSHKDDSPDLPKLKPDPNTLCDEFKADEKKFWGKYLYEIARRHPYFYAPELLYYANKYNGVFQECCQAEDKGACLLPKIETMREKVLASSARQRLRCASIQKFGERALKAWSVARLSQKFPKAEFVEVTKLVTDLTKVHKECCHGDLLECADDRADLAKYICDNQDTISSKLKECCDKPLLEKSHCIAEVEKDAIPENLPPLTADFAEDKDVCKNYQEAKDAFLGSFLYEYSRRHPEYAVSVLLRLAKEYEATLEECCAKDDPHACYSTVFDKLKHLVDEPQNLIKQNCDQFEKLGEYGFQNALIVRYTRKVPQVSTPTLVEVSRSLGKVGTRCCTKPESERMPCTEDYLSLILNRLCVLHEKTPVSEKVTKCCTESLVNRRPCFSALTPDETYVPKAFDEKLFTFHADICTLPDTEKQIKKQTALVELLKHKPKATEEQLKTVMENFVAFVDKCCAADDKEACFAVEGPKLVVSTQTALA

As a reminder, the inhibition is how much of the control response was suppressed. As for `N=C(N)NN` [Aminoguanidine], the inhibition at 5000 µM came out at 7.5%.
